Read-outs that look alike come from different tables or passages of the source. Square brackets hold non-standard residues; d marks the D form. Peptide text beside a SMILES is read from it. * marks the point of attachment. Benzoyl(4-guanidino) = N=C(N)Nc1ccc(C(=O)*)cc1; Oic = O=C(O)[C@@H]1C[C@@H]2CCCC[C@@H]2N1; Hyp = O=C(O)[C@@H]1C[C@@H](O)CN1; dTic = O=C(O)[C@H]1Cc2ccccc2CN1; 2Thi = N[C@@H](Cc1cccs1)C(=O)O; Agp = N=C(N)NC[C@H](N)C(=O)O
Key:
[1] = system: oedème de la patte de rat induite par injection de carragénine; details: rat, 0,1 mg/kg I.V., at time 1 hour, versus vehicle control group
From the text: L'activité anti-inflammatoire des dérivés de l'invention a été mesurée en utilisant le modèle de l'oedème de la patte de rat induite par injection de carragénine (WINTER G. A. et coll. Proc. Soc. Exp. Biol. Med., 3, 544-547, 1960). Cette étude est effectuée sur rats mâles de 180-210 g par lot de 8. Les dérivés de l'invention sont administrés par voie I.V. au temps 0 précédant immédiatement l'injection de carragénine par voie sous-cutanée dans la plante de la patte arrière droite du rat (Carragénine lambda type IV, sigma, solution à 1 %, volume injecté 0,1 ml). Le volume de la patte aux différents temps de l'expérimentation est mesurée par plethysmographie. L'inhibition de l'oedème au temps 3 heures est calculée par rapport à un lot contrôle ayant reçu le véhicule et exprimée en pourcentage d'inhibition.

[2] = system: Récepteur B2; type: cell-based, lapin
Protocol: Exemple 44 : Mesure in vitro de l'effet des dérivés de l'invention vis à vis de la réponse contractile du muscle lisse de la veine jugulaire de lapin induite par la bradykinine
Cette étude a été réalisée selon le protocole décrit par D. REGOLI et J. BARABE (Récepteur B2-Pharmacology of Bradykinin and related kinins, Pharm. Rev., 32, 1, 1-46, 1980). Des anneaux de veine jugulaire sont suspendus dans des chambres d'organes (40 ml) contenant une solution de KREBS thermostatée à 37°C, oxygénée en permanence par un bullage de 95 % 02/5 % CO2. La force isométrique développée par les anneaux est mesurée et enregistrée. La tension de base est d'environ 2 g. Les cuves reçoivent les concentrations du dérivé de l'invention à tester (10^-8M à 10^-5M), une cuve contrôle reçoit le solvant. Une courbe concentration réponse à la bradykinine est réalisée de 10^-10M à 10^-5M avec une progression par demi-log. La puissance des antagonistes à la bradykinine est mesurée à partir des courbes log dose-effet permettant la détermination des pA2 (logarithme négatif de la concentration molaire du dérivé de l'invention qui oblige à doubler la concentration de bradykinine pour obtenir le même effet). Lors de ce test, les dérivés de l'invention ont un pA2 compris entre 9 et 10. Plus particulièrement, le pA2 du composé de l'exemple 2 est égal à 9,1 ± 0,1, celui de l'exemple 3 est égal à 9,4 ± 0,1, celui de l'exemple 5 est égal à 9,3 ± 0,1.

[3] = antagonism of bradykinin concentration-response curve (10^-10M to 10^-5M), rabbit jugular vein rings, compound 10^-8M to 10^-5M, 37°C

Row | Molecule | inhibition de l'oedème [1] | pA2 [2, 3] | pA2 [2]
1 | arg-Arg-Pro-Hyp-Gly-Thi-Ser-[3,2-c]ttp-Oic-Arg [Exemple 3] | 36% | 9,4 ± 0,1 | 
2 | N=C(N)NCCC[C@H](NC(=O)c1ccc(NC(=N)N)cc1)C(=O)N1CCC[C@H]1C(=O)N1C[C@H](O)C[C@H]1C(=O)NCC(=O)N[C@@H](Cc1cccs1)C(=O)N[C@@H](CO)C(=O)N1Cc2ccccc2C[C@@H]1C(=O)N1[C@H](C(=O)N[C@@H](CNC(=N)N)C(=O)O)C[C@@H]2CCCC[C@@H]21 [Exemple 5, Gba-Arg-Pro-Hyp-Gly-Thi-Ser-tic-Oic-Gpr-OH] ({Benzoyl(4-guanidino)}-RP[Hyp]G[2Thi]S[dTic][Oic][Agp]-OH) |  |  | 9,3 ± 0,1
3 | Gba-Arg-Pro-Hyp-Gly-Thi-Ser-[3,2-c]ttp-Oic-Arg [Exemple 2] | 36% | 9,1 ± 0,1 | 

From patent EP0578521B1, “New peptide derivatives with bradykinin-antagonistic activity, process to prepare them and pharmaceutical compositions containing them” (ADIR ET COMPAGNIE, priority 1992, dated 1996)
